Laboratory results as given in US20100022483A1, “Substituted Tetracycline Compounds” (Paratek Pharmaceuticals, Inc., priority 2008, published 2010).
≈ marks a conversion by molar mass, not a printed value. Read-outs that look alike come from different tables or passages of the source.

Tests used:
in vitro = type: cell-based; conditions: Chinese hamster, Cytotox. CHO-K1
[1] = Mammalian cytotoxicity assay (resazurin), COS-1 cells; type: cell-based; conditions: African green monkey, read-out: Cytotox. COS-1
In short: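 Cells seeded overnight at 37° C., 5% CO2, then exposed to serial compound dilutions for 24 hours. Medium replaced with resazurin (0.042 mg/ml in PBS with Ca and Mg) for 2 hours plus 30 minutes dark at room temperature; fluorescence read at ex 535/em 590 nm, IC50 taken as 50% growth inhibition.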

gram positive bacteria = assay: In vitro anti-bacterial activity assay (broth dilution MIC), gram positive bacteria; type: cell-based, S. aureus; conditions: 18 h
In short: (§1)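 Broth dilution MIC following CLSI M7-A2: compounds serially diluted, log-phase test strains added to final ~5×10^5 CFU/ml, incubated ~18 hours at 35° C in ambient air. Plates read on microplate reader or visually; MIC is lowest concentration inhibiting growth.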

gram negative bacteria = assay: In vitro anti-bacterial activity assay (broth dilution MIC), gram negative bacteria; type: cell-based, E. coli
In short: as §1

3T3 fibroblast cells = assay: In vitro phototoxicity assay (neutral red; UV light-treated vs dark control plates); type: cell-based; conditions: for Photo Toxicity UV Tox50: UV light 50 minutes; for Photo Toxicity Dark Tox50: dark control plate
In short: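 Neutral red viability readout (A535 after EtOH/acetic acid extraction) compares paired plates: one exposed 50 min to UV at 1.6–1.8 mW/cm^2, one held in darkness, both dosed with compound in HBSS and recovered overnight. 3T3 fibroblast cells used; phototoxicity taken as the difference.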

[2] = Staphylococcus aureus, S. aureus MRSA5, read-out: Median MIC's G+ S. aureus MRSA5
[3] = Staphylococcus aureus, S. aureus RN450, read-out: Median MIC's G+ S. aureus RN450
[4] = Streptococcus pneumoniae, S. pneumoniae 157E-Strep, read-out: Median MIC's G+ S. pneumoniae 157E-Strep
[5] = Escherichia coli, 18 h, E. coli D1 209, read-out: Median MIC's G− E. coli D1 209
[6] = Escherichia coli, 18 h, E. coli MG 1655, read-out: Median MIC's G− E. coli MG 1655
[7] = Escherichia coli, ATCC25922, 18 h, E. coli ATCC 25922, read-out: Median MIC's G− E. coli ATCC 25922
[8] = Pseudomonas aeruginosa, 18 h, P. aeruginosa K201 PAO6609, read-out: Median MIC's G− P. aeruginosa K201 PAO6609

SMILES | IC50 at 24 h (in vitro) | IC50 at 24 h [1] | MIC (gram positive bacteria; [2]) | MIC (gram positive bacteria; [3]) | MIC (gram positive bacteria; [4]) | MIC (gram negative bacteria; [5]) | MIC (gram negative bacteria; [6]) | MIC (gram negative bacteria; [7]) | MIC (gram negative bacteria; [8]) | Photo Toxicity UV Tox50 (3T3 fibroblast cells) | Photo Toxicity Dark Tox50 (3T3 fibroblast cells) | MIC (gram positive bacteria; Staphylococcus aureus, read-out: Median MIC's G+ S. aureus MRSA5) | MIC (gram positive bacteria; Staphylococcus aureus, read-out: Median MIC's G+ S. aureus RN450) | MIC (gram positive bacteria; Streptococcus pneumoniae, read-out: Median MIC's G+ S. pneumoniae 157E-Strep) | MIC (gram negative bacteria; Escherichia coli, 18 h, read-out: Median MIC's G− E. coli D1 209, E. coli D1 209) | MIC (gram negative bacteria; Escherichia coli, 18 h, read-out: Median MIC's G− E. coli MG 1655, E. coli MG 1655) | MIC (gram negative bacteria; Escherichia coli, ATCC25922, 18 h, read-out: Median MIC's G− E. coli ATCC 25922, E. coli ATCC 25922) | MIC (gram negative bacteria; Pseudomonas aeruginosa, 18 h, read-out: Median MIC's G− P. aeruginosa K201 PAO6609, P. aeruginosa K201 PAO6609)
CN(C)CCCc1cccc(-c2ccc(O)c3c2C[C@H]2C[C@H]4[C@H](N(C)C)C(O)=C(C(N)=O)C(=O)[C@@]4(O)C(O)=C2C3=O)c1 [DJ] | 119 µM | 141 µM | 4 µg/mL (≈ 6.95 µM) | 0.0625 µg/mL (≈ 0.109 µM) | 0.06 µg/mL (≈ 0.104 µM) | 2 µg/mL (≈ 3.47 µM) | 8 µg/mL (≈ 13.9 µM) | 2 µg/mL (≈ 3.47 µM) | 64 µg/mL (≈ 111 µM) | >200 µM | >200 µM |  |  |  |  |  |  | 
CN1CCN(Cc2cccc(-c3ccc(O)c4c3C[C@H]3C[C@H]5[C@H](N(C)C)C(O)=C(C(N)=O)C(=O)[C@@]5(O)C(O)=C3C4=O)c2)CC1 [DK] | 92.3 µM | > 200 µM | 4 µg/mL (≈ 6.64 µM) | 0.0625 µg/mL (≈ 0.104 µM) | 0.06 µg/mL (≈ 0.0996 µM) | 2 µg/mL (≈ 3.32 µM) | 4 µg/mL (≈ 6.64 µM) | 1 µg/mL (≈ 1.66 µM) | 64 µg/mL (≈ 106 µM) | >200 µM | >200 µM |  |  |  |  |  |  | 
CN1CCN(C(=O)c2cccc(-c3ccc(O)c4c3C[C@H]3C[C@H]5[C@@H](N(C)C)C(O)=C(C(N)=O)C(=O)[C@@]5(O)C(O)=C3C4=O)c2)CC1 [D] | > 131 µM | > 131 µM | 64 µg/mL (≈ 104 µM) | 32 µg/mL (≈ 51.9 µM) | 4 µg/mL (≈ 6.49 µM) | 64 µg/mL (≈ 104 µM) | 64 µg/mL (≈ 104 µM) | 64 µg/mL (≈ 104 µM) | 64 µg/mL (≈ 104 µM) | >130.51 µM | >130.51 µM |  |  |  |  |  |  | 
CCN(CC)CCNC(=O)c1cccc(-c2ccc(O)c3c2C[C@H]2C[C@H]4[C@H](N(C)C)C(O)=C(C(N)=O)C(=O)[C@@]4(O)C(O)=C2C3=O)c1 [E, (4S,4aS,5aR,12aS)-7-[3-(2-Diethylamino-ethylcarbamoyl)-phenyl]-4-dimethylamino-3,10,12,12a-tetrahydroxy-1,1′-dioxo-1,4,4a,5,5a,6,11,12a-octahydro-naphthacene-2-carboxylic acid amide] | > 139 µM | > 139 µM | 16 µg/mL (≈ 25.3 µM) | 0.5 µg/mL (≈ 0.79 µM) | 0.125 µg/mL (≈ 0.198 µM) | 64 µg/mL (≈ 101 µM) | 8 µg/mL (≈ 12.6 µM) | 8 µg/mL (≈ 12.6 µM) | 64 µg/mL (≈ 101 µM) | >138.88 µM | >138.88 µM |  |  |  |  |  |  | 
CCCCNC(=O)c1cccc(-c2ccc(O)c3c2C[C@H]2C[C@H]4[C@H](N(C)C)C(O)=C(C(N)=O)C(=O)[C@@]4(O)C(O)=C2C3=O)c1 [F] | > 15.2 µM | 15.2 µM |  |  |  | 64 µg/mL (≈ 109 µM) | 64 µg/mL (≈ 109 µM) | 64 µg/mL (≈ 109 µM) | 64 µg/mL (≈ 109 µM) | >151.73 µM | >151.73 µM | 1 µg/mL (≈ 1.7 µM) | 0.06 µg/mL (≈ 0.102 µM) | 0.06 µg/mL (≈ 0.102 µM) |  |  |  | 
CN(C)[C@@H]1C(O)=C(C(N)=O)C(=O)[C@@]2(O)C(O)=C3C(=O)c4c(O)ccc(-c5cnc6ccccc6c5)c4C[C@H]3C[C@@H]12 [G] | 14.8 µM | 15.9 µM | 0.5 µg/mL (≈ 0.923 µM) | 0.06 µg/mL (≈ 0.111 µM) | 0.06 µg/mL (≈ 0.111 µM) | 64 µg/mL (≈ 118 µM) | 64 µg/mL (≈ 118 µM) | 4 µg/mL (≈ 7.39 µM) | 64 µg/mL (≈ 118 µM) | 19.29 µM | >159.48 µM |  |  |  |  |  |  | 
CN(C)[C@H]1C(O)=C(C(N)=O)C(=O)[C@@]2(O)C(O)=C3C(=O)c4c(O)ccc(-c5cnc6ccccc6c5)c4C[C@H]3C[C@@H]12 [H] | > 15.9 µM | > 15.9 µM | 2 µg/mL (≈ 3.69 µM) | 0.5 µg/mL (≈ 0.923 µM) | 0.25 µg/mL (≈ 0.462 µM) | 64 µg/mL (≈ 118 µM) | 64 µg/mL (≈ 118 µM) | 64 µg/mL (≈ 118 µM) | 64 µg/mL (≈ 118 µM) | >159.48 µM | >159.48 µM |  |  |  |  |  |  | 
CCOC(=O)CCNC(=O)c1cccc(-c2ccc(O)c3c2C[C@H]2C[C@H]4[C@H](N(C)C)C(O)=C(C(N)=O)C(=O)[C@@]4(O)C(O)=C2C3=O)c1 [I, 3-[3-((6aS,10S,10aS,11aR)-8-Carbamoyl-10-dimethylamino-4,6,6a,9-tetrahydroxy-5,7-dioxo-5,6a,7,10,10a,11,11a,12-octahydro-naphthacen-1-yl)-benzoylamino]-propionic acid ethyl ester] | > 14.2 µM | > 14.2 µM | 2 µg/mL (≈ 3.16 µM) | 0.06 µg/mL (≈ 0.0947 µM) | 3 µg/mL (≈ 4.73 µM) |  |  |  |  | >141.76 µM | >141.76 µM |  |  |  | 64 µg/mL (≈ 101 µM) | 64 µg/mL (≈ 101 µM) | 64 µg/mL (≈ 101 µM) | 64 µg/mL (≈ 101 µM)
CN(C)CC(=O)Nc1cccc(-c2ccc(O)c3c2C[C@H]2C[C@H]4[C@H](N(C)C)C(O)=C(C(N)=O)C(=O)[C@@]4(O)C(O)=C2C3=O)c1 [K, (4S,4aS,5aR,12aS)-4-Dimethylamino-7-[3-(2-dimethylamino-acetylamino)-phenyl]-3,10,12,12a-tetrahydroxy-1,11-dioxo-1,4,4a,5,5a,6,11,12a-octahydro-naphthacene-2-carboxylic acid amide] | > 12.8 µM | > 12.8 µM | 2 µg/mL (≈ 3.39 µM) | 0.06 µg/mL (≈ 0.102 µM) | 0.06 µg/mL (≈ 0.102 µM) | 2 µg/mL (≈ 3.39 µM) | 2 µg/mL (≈ 3.39 µM) | 1 µg/mL (≈ 1.69 µM) | 64 µg/mL (≈ 108 µM) | >128.09 µM | >128.09 µM |  |  |  |  |  |  | 
COCCNC(=O)c1cccc(-c2ccc(O)c3c2C[C@H]2C[C@H]4[C@H](N(C)C)C(O)=C(C(N)=O)C(=O)[C@@]4(O)C(O)=C2C3=O)c1 [L] | > 15.1 µM | > 15.1 µM | 1 µg/mL (≈ 1.69 µM) | 0.06 µg/mL (≈ 0.101 µM) | 0.06 µg/mL (≈ 0.101 µM) | 64 µg/mL (≈ 108 µM) | 32 µg/mL (≈ 54.1 µM) | 8 µg/mL (≈ 13.5 µM) | 64 µg/mL (≈ 108 µM) | >151.25 µM | >151.25 µM |  |  |  |  |  |  | 
CNCCNC(=O)c1cccc(-c2ccc(O)c3c2C[C@H]2C[C@H]4[C@H](N(C)C)C(O)=C(C(N)=O)C(=O)[C@@]4(O)C(O)=C2C3=O)c1 [M] | > 143 µM | > 143 µM | 64 µg/mL (≈ 108 µM) | 4 µg/mL (≈ 6.77 µM) | 32 µg/mL (≈ 54.2 µM) | 64 µg/mL (≈ 108 µM) | 64 µg/mL (≈ 108 µM) | 64 µg/mL (≈ 108 µM) | 64 µg/mL (≈ 108 µM) | >143.16 µM | >143.16 µM |  |  |  |  |  |  | 
CN(C)[C@@H]1C(O)=C(C(N)=O)C(=O)[C@@]2(O)C(O)=C3C(=O)c4c(O)ccc(-c5cccc(C(=O)NCCN)c5)c4C[C@H]3C[C@@H]12 [N] | > 46.8 µM | > 46.8 µM | 64 µg/mL (≈ 111 µM) | 2 µg/mL (≈ 3.47 µM) | 16 µg/mL (≈ 27.7 µM) | 64 µg/mL (≈ 111 µM) | 64 µg/mL (≈ 111 µM) | 64 µg/mL (≈ 111 µM) | 64 µg/mL (≈ 111 µM) | 95.14 µM | >150.87 µM |  |  |  |  |  |  | 
CCN(CC)CCNC(=O)c1cccc(-c2ccc(O)c3c2C[C@H]2C[C@H]4[C@@H](N(C)C)C(O)=C(C(N)=O)C(=O)[C@@]4(O)C(O)=C2C3=O)c1 [O] | > 135 µM | > 135 µM | 64 µg/mL (≈ 101 µM) | 4 µg/mL (≈ 6.32 µM) | 4 µg/mL (≈ 6.32 µM) | 64 µg/mL (≈ 101 µM) | 64 µg/mL (≈ 101 µM) | 64 µg/mL (≈ 101 µM) | 64 µg/mL (≈ 101 µM) | >134.63 µM | >134.63 µM |  |  |  |  |  |  | 
